Here are results for 10 molecules from US20250320253A1, “TRANSMEMBRANE PEPTIDIC ANTAGONISTS OF PLEXIN-A1 AND THEIR THERAPEUTIC USES” (UNIVERSITE DE STRASBOURG, priority 2021, published 2025).

“Also recorded” adds a separate entry of the source. Ends that are not written are not given here.

The nature of series [1]: MTP solubility in PBS and PBS/LDS. In kind it is physicochemical. How it is done: The solubility of the MTPs was tested either in phosphate buffered saline (PBS) or in a mixture of PBS and lithium dodecyl sulfate (LDS).
Series [2] deals with T1, NRP1-PlexinA1 interaction (Mus musculus, UniProt P70206).
T1 construct: endogenous in cells; host or cells: Oli-neu cells
Description: Proximity ligation assay of Neuropilin-1/Plexin-A1 receptor dimers in Oli-neu cells. Type of series: cell-based. As to conditions: for Normalized interactions Nrp1-PlexinA1/cell: Oli-neu cells treated with peptides at 10^−7 M, vehicle 100; for reduction of the number of NRP1/PlexinA1 interactions: 10^−7 M. Here is the method:
After fixation with 1% PFA for 10 min, slices were permeabilized with PBS/0.1% Triton X-100. Primary antibodies (NRP1 from Evitria, 1:500; and Plexin-A1 from Abcam, ab23391, 1:200) were incubated overnight at 4° C. in PBS. The proximity ligation assay allowing to visualize receptor dimers (Neuropilin-1/Plexin-A1) was then performed according to the manufacturer's recommendations with the “detection orange” kit (Sigma). Quantification of the interactions (fluorescent dots at the cell surface) was performed using ImageJ software.

Series [3] has as its system oligodendrocyte cell line Oli-neu. Description: Cell migration assay (Transwell CIM-Plate, xCELLigence), rescue of Sema3A negative effect. As to conditions: 20 ng/ml Sema3A. In kind it is cell-based. How it is done:
Cells were pre-incubated 1 h with vehicle alone or MTP. The 1×10^5 cells were seeded in the upper chamber with 150 μl of medium. The bottom well contained 160 μl of medium supplemented with 2% fetal bovine serum for chemoattraction and 20 ng/ml Sema3A (Recombinant Mouse Semaphorin 3A Fc Chimera Protein Carrier Free ref: 5926-S3/CF; RnD Systems) for repulsion. Analysis was performed after 8 h of migration according to the manufacturer's instructions. Data are expressed as a percentage of positive control migration, i.e. the migration of Oli-neu with 2% serum and without Sema3A.

Series [4] has as its system cuprizone-induced demyelination. As to conditions: mouse, in vivo. How it is done: It was next assessed whether […] can induce remyelination of the CNS and motor function recovery following demyelination induced by cuprizone, a copper-chelating agent, in a mouse model. Oral intoxication with cuprizone induces oligodendrocyte apoptosis within a few days, which is closely followed by the activation of the innate immune cells in the brain, i.e., astrocytes and microglia, finally leading to demyelination of distinct white and grey matter brain areas. […] (10 μg/kg) for 6 consecutive days (n=10) • (e) 5 weeks cuprizone, followed by treatment with […] (100 μg/kg) for 6 consecutive days (n=10) • (f) 5 weeks cuprizone, followed by treatment with vehicle for 11 consecutive days (n=10) • (g) 5 weeks cuprizone, followed by treatment with […] (10 μg/kg) for 11 consecutive days (n=10) • (h) 5 weeks cuprizone, followed by treatment with […] (100 μg/kg) for 11 consecutive days (n=10) Acute demyelination was induced by intoxicating for five consecutive weeks 8-week-old (19-21 g) male mice a diet containing 0.25% cuprizone [bis(cyclohexanone)oxaldihydrazone; Sigma-Aldrich Inc., St Louis, MO, USA] mixed into a ground standard rodent chow. […]

In series [5] the target is Plexin-A1 (on Oli-neu cells) (UniProt P70206). Description: proximity ligation assay on Oli-neu cells, peptide at 10^-7 M for 1 h; NRP1/Plexin-A1 dimers counted.
Series [6] has the same target. Description: proximity ligation assay on Oli-neu cells, dose response; inhibition of NRP1/Plexin-A1 interactions.
Where [7] appears, read: Solubilization vehicle PBS 100%.

Molecule “TLPAIGVITLVGLGVLELVAEGVYEEEEE [HODR, reference compound]” showed a Measured concentration in series [1] (setting [7]) of 189 µM.

For the molecule TLPAITGLVGGVGLLLEVIVEVAYEEEEE [GUNGNIR], the “Normalized interactions Nrp1-PlexinA1/cell” value in series [2] was determined as 40.4. In series [2] (Oli-neu cells), the “reduction of the number of NRP1/PlexinA1 interactions” value was −60%. Further, in series [3] (n=3), the IC50 was determined as 1.2 nM. In addition, the Measured concentration in series [1] (setting [7]) amounted to 248 µM. In addition, in series [4], the body weight entry is “no differences were observed” and the “percentage loss of body weight relative to vehicle-treated groups” value was “significantly less pronounced”.

Consider TLPAIVSIGGGVVLLLEVIVEVAYEEEEE [MIMMING], for which the “Normalized interactions Nrp1-PlexinA1/cell” value in series [2] amounted to 49.4. The “reduction of the number of NRP1/PlexinA1 interactions” value in series [2] (Oli-neu cells) was −51%. Further, the IC50 in series [2] (Oli-neu cells, dose response, read-out: IC50, number of NRP1/PlexinA1 interactions) turned out to be 17 nM. Besides, the “rescue of Sema3A negative effect on migration” value in series [3] (8 h of migration) was “able to counteract; also recorded: rescue migration”.

“TLPAIVGIGGGGGLLLEVIVEVLIAYEEEEE [DRAUPNIR]”: the Measured concentration in series [1] (setting [7]) amounted to 260 µM.

“TLPAIVGIGGGGGLLLLVIVAVLIAYKRK [MTP-PlexA1, reference compound]”: the Measured concentration worked out at 0 µM in series [1] (setting [7]) and 360 µM in series [1] (Solubilization vehicle PBS 100% LDS 72 mM).

As to “TLPVIGVIVLVGSAVLELIAEGVYEEEEE [SURTR, reference compound]”, the “Normalized interactions Nrp1-PlexinA1/cell” value in series [2] is on record as 96.8.

As for TLPAIVGIGGGGGELLLVIVEVLIYEEEEE [RATI], the Measured concentration in series [1] (setting [7]) was found to be 224 µM.

Molecule TLPAITGLVGGVGLLLEVIVEVAYEEEEE [GUNGNIR] registered a Normalized interactions Nrp1-PlexinA1/cell (normalized to vehicle = 100) in series [5] of 40.4. For the same molecule, the IC50 in series [6] was 0.074 nM.

The molecule TLPAIVSIGGGVVLLLEVIVEVAYEEEEE [MIMMING] returned a Normalized interactions Nrp1-PlexinA1/cell (normalized to vehicle = 100) in series [5] of 49.4.

As to TLPVIGVIVLVGSAVLELIAEGVYEEEEE [SURTR], the Normalized interactions Nrp1-PlexinA1/cell (normalized to vehicle = 100) in series [5] worked out at 96.8.
